Results as given in US20190315731A1, “6-(BUTA-1,3-DIYN-1-YL)BENZO[D]THIAZOLE DERIVATIVES” (Idorsia Pharmaceuticals Ltd., priority 2016, published 2019).

System: wild-type E. coli A-1261
Assay: Bacterial growth minimal inhibitory concentration of prodrugs, wild-type E. coli A-1261, with or without alkaline phosphatase or esterase
Format: cell-based
Method: Minimal Inhibitory Concentrations (MICs; mg/L) were determined in cation-adjusted Mueller-Hinton Broth by a microdilution method following the description given in “Methods for Dilution Antimicrobial Susceptibility Tests for Bacteria that Grow Aerobically”, Approved standard, 7th ed., Clinical and Laboratory Standards Institute (CLSI) Document M7-A7, Wayne, Pa., USA (2006).
The compounds of Examples 6 and 21 were tested against wild-type E. coli A-1261 in the absence of alkaline phosphatase or esterase, in the presence of an alkaline phosphatase and in the presence of an esterase. The corresponding antibacterial test results are given in Table 2 hereafter (MICs in mg/L).

With “(2R)-2-(3-((4-(5-((1-(3-hydroxypropyl)azetidin-3-yl)buta-1,3-diyn-1-yl)benzo[d]thiazol-2-yl)-2-methyl-2-(methylsulfonyl)butanamido)oxy)-3-oxopropyl)phenyl dihydrogen phosphate [Example 21]” the “MIC for E. coli A-1261 In the presence of an alkaline phosphatase (2 i.U./mL)” value (alkaline phosphatase 2 i.U./mL) was 0.5 µg/mL, the “MIC for E. coli A-1261 In the presence of an esterase (10 i.U./mL)” value (esterase 10 i.U./mL) was 8 µg/mL and the “MIC for E. coli A-1261 In the absence of alkaline phosphatase or esterase” value (no alkaline phosphatase or esterase) was 0.5 µg/mL.
